The record followed here is patent publication US7345082B2, “Phosphinic acids” (Hoffmann-La Roche Inc., priority 2003, dated 2008).

The target in the assay is T1, purified BACE protein (β-secretase) (Homo sapiens, UniProt P56817).
T1 construct: made in house
T1 sequence (P56817 46-501): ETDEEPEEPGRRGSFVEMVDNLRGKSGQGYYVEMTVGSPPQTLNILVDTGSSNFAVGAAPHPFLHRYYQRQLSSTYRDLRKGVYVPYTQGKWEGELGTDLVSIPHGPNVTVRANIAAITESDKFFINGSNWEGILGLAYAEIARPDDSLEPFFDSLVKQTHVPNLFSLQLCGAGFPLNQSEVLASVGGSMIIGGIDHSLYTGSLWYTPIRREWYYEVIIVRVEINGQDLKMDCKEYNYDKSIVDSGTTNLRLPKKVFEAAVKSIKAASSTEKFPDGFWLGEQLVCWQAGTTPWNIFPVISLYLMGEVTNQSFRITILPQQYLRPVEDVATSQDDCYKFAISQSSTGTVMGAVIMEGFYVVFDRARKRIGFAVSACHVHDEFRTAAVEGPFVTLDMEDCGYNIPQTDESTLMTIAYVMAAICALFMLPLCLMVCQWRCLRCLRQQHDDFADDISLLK
As to the kind of experiment: Competitive Radioligand Binding Assay (RLBA). Conditions: β-secretase inhibition; displacement of tritiated Compound A from BACE-coated plates, pH 4.1; read-out: IC50 in vitro. How it is done: Competitive Radioligand Binding Assay (RLBA)
96 well microplates (Optiplate Packard) are coated with purified BACE protein (see e.g. GB 2,385,124: Examples 1 and 2) using a concentration of 1 μg/ml in 30 mM sodium citrate buffer adjusted to pH 5.5. The coating is achieved by incubation of 100 μl/well for 1-3 days at 4° C. The plate is then washed with 2×300 μl/well of 10 mM citrate pH 4.1. To each well 100 μl binding buffer (30 mM citrate, 100 mM NaCl, 0.1% BSA, pH 4.1) is dispensed. The test compound is added in 5 μl from a DMSO stock solution or appropriate dilutions. To this the tracer (tritiated Compound A, see e.g. GB 2,385,124: Example 4) is added in 10 µl/well from a 10 μCi/ml stock solution in binding buffer. After incubation for 1.5-2 hours in a humid chamber at ambient temperature the plate is washed with 2×300 μl/well water and flipped on a dry towel. Following the addition of 50 μl/well Micro-Scint20 (Packard) the plate is sealed and vibrated for 5 seconds. The bound radioactivity is counted on a Topcount (Packard). Total binding is typically between 2000 and 10000 cpm/well depending mainly on the purity and concentration of the BACE protein. Non-specific binding as assessed by competition with >1 μM peptidic inhibitor (Bachem # H-4848) is typically between 30 and 300 cpm/well. The IC-50 values are calculated by Microsoft Excel FIT.
As to `CCCN(CCC)C(=O)c1cccc(C(=O)N[C@@H](Cc2ccccc2)P(=O)(O)CC(C)C(=O)Nc2ccccc2)c1` (mixture of isomers) [Compound I-18, [(R)-1-(3-dipropylcarbamoyl-benzoylamino)-2-phenyl-ethyl]-(2-phenylcarbamoyl-propyl)-phosphinic acid], the concentration for half-maximal inhibition (IC50) was found to be 10 nM.

For the compound `CCCN(CCC)C(=O)c1cccc(C(=O)N[C@@H](Cc2ccccc2)P(=O)(O)CC(C)C(=O)NCCC(C)C)c1` (mixture of isomers) [Compound I-37, [(R)-1-(3-dipropylcarbamoyl-benzoylamino)-2-phenyl-ethyl]-[2-(3-methyl-butylcarbamoyl)-propyl]-phosphinic acid], the half-maximal inhibitory concentration (IC50) was 40 nM.

As for `CCCOc1cc(C(=O)N[C@@H](Cc2ccccc2)P(=O)(O)CC(C)C(=O)Nc2ccccc2)cc(N2CCCC2=O)c1` (stereo partly drawn) [Compound I-5, {(R)-1-[3-(2-oxo-pyrrolidin-1-yl)-5-propoxy-benzoylamino]-2-phenyl-ethyl}-(2-phenylcarbamoyl-propyl)-phosphinic acid], the 50% inhibitory concentration (IC50) was 50 nM.

Consider `CCCN(CCC)C(=O)c1cccc(C(=O)NC(Cc2ccccc2)P(=O)(O)CC(C(=O)Nc2ccc(C)cc2)C(C)C)c1` (centres unmarked) [Compound I-14, [1-(3-dipropylcarbamoyl-benzoylamino)-2-phenyl-ethyl]-(3-methyl-2-p-tolylcarbamoyl-butyl)-phosphinic acid], for which the 50% inhibitory concentration (IC50) came out at 200 nM.

`CCCN(CCC)C(=O)c1cccc(C(=O)N[C@@H](Cc2ccccc2)P(=O)(O)CC(C)C(=O)NC2CCCCC2)c1` (stereo partly drawn) [Compound I-42, (2-cyclohexylcarbamoyl-propyl)-[(R)-1-(3-dipropylcarbamoyl-benzoylamino)-2-phenyl-ethyl]-phosphinic acid]: the half-maximal inhibitory concentration (IC50) turned out to be 20 nM.

As a reminder, the IC50 is the point on the concentration scale where inhibition reaches its midpoint.
